Source: the NIST ThermoML archive (doi:10.1021/je034007i)
± gives the expanded uncertainty stated by the source.

Columns and labels:
[1] = excess molar enthalpy (molar enthalpy of mixing); xn = mol fraction of the nth substance listed; settings: 308.15 K, 101.3 kPa, Liquid
[2] = 308.15 K; 101.33 kPa; Liquid; vibrating tube

OCCO [1,2-ethanediol] + C[S+](C)[O-]
[1]
Settings | excess molar enthalpy [kcal/mol]
x1 = 0.0506 | -0.0466 ± 0.0011
x1 = 0.0963 | -0.0878 ± 0.00182
x1 = 0.1378 | -0.119 ± 0.00234
x1 = 0.1757 | -0.147 ± 0.00287
x1 = 0.2423 | -0.181 ± 0.00335
x1 = 0.2989 | -0.203 ± 0.00382
x1 = 0.39 | -0.219 ± 0.00406
x1 = 0.4601 | -0.218 ± 0.00406
x1 = 0.5612 | -0.198 ± 0.00359
x1 = 0.6574 | -0.169 ± 0.00311
x1 = 0.7189 | -0.147 ± 0.00287
x1 = 0.7933 | -0.118 ± 0.00234
x1 = 0.8365 | -0.0991 ± 0.00201
x1 = 0.8847 | -0.0728 ± 0.00155
x1 = 0.911 | -0.0595 ± 0.00131
x1 = 0.9388 | -0.044 ± 0.00105
x1 = 0.9685 | -0.0237 ± 0.000741

CC(O)CO (configuration not stated) [1,2-propanediol]
Settings | mass density [kg/m3]
[2] | 1026.15 ± 0.26

CC(O)CO (configuration not stated) [1,2-propanediol] + C[S+](C)[O-]
[1]
Settings | excess molar enthalpy [kcal/mol]
x2 = 0.0389 | -0.0194 ± 0.000669
x2 = 0.0748 | -0.039 ± 0.00098
x2 = 0.1082 | -0.0531 ± 0.00122
x2 = 0.1392 | -0.0645 ± 0.00141
x2 = 0.1921 | -0.0847 ± 0.00174
x2 = 0.2444 | -0.0962 ± 0.00196
x2 = 0.3267 | -0.104 ± 0.00208
x2 = 0.3928 | -0.101 ± 0.00203
x2 = 0.4925 | -0.0926 ± 0.00189
x2 = 0.5929 | -0.0788 ± 0.00165
x2 = 0.66 | -0.0691 ± 0.00148
x2 = 0.7444 | -0.0543 ± 0.00124
x2 = 0.7952 | -0.0446 ± 0.00108
x2 = 0.8535 | -0.0323 ± 0.00086
x2 = 0.8859 | -0.0234 ± 0.000741
x2 = 0.9209 | -0.0155 ± 0.000621
x2 = 0.9588 | -0.00719 ± 0.000478

OCCOCCO [diethylene glycol]
Settings | mass density [kg/m3]
[2] | 1105.65 ± 0.56

OCCOCCO [diethylene glycol] + C[S+](C)[O-]
[1]
Settings | excess molar enthalpy [kcal/mol]
x1 = 0.0303 | -0.0251 ± 0.000765
x1 = 0.0588 | -0.0476 ± 0.00112
x1 = 0.0857 | -0.0664 ± 0.00143
x1 = 0.1111 | -0.0834 ± 0.00172
x1 = 0.1579 | -0.109 ± 0.00217
x1 = 0.2 | -0.128 ± 0.00263
x1 = 0.2727 | -0.15 ± 0.00287
x1 = 0.3332 | -0.159 ± 0.00311
x1 = 0.4285 | -0.162 ± 0.00311
x1 = 0.5295 | -0.154 ± 0.00287
x1 = 0.6 | -0.145 ± 0.00287
x1 = 0.6923 | -0.124 ± 0.00239
x1 = 0.75 | -0.112 ± 0.00222
x1 = 0.8182 | -0.0909 ± 0.00186
x1 = 0.8571 | -0.0762 ± 0.0016
x1 = 0.9 | -0.0599 ± 0.00134
x1 = 0.9474 | -0.0347 ± 0.000908

C[S+](C)[O-] [dimethyl sulfoxide]
Settings | mass density [kg/m3]
[2] | 1085.5 ± 0.55

OCCOCCOCCO [triethylene glycol]
Settings | mass density [kg/m3]
[2] | 1112.1 ± 0.56

OCCOCCOCCO [triethylene glycol] + C[S+](C)[O-]
[1]
Settings | excess molar enthalpy [kcal/mol]
x1 = 0.0217 | -0.0287 ± 0.000813
x1 = 0.0425 | -0.0537 ± 0.00122
x1 = 0.0625 | -0.0751 ± 0.00158
x1 = 0.0816 | -0.0944 ± 0.00191
x1 = 0.1176 | -0.125 ± 0.00239
x1 = 0.1509 | -0.15 ± 0.00287
x1 = 0.2104 | -0.181 ± 0.00335
x1 = 0.2621 | -0.198 ± 0.00382
x1 = 0.3477 | -0.215 ± 0.00406
x1 = 0.4444 | -0.214 ± 0.00406
x1 = 0.516 | -0.207 ± 0.00382
x1 = 0.6153 | -0.186 ± 0.00359
x1 = 0.6807 | -0.168 ± 0.00311
x1 = 0.7618 | -0.137 ± 0.00263
x1 = 0.81 | -0.117 ± 0.00232
x1 = 0.8648 | -0.0917 ± 0.00186
x1 = 0.9275 | -0.0526 ± 0.0012
